This note sets out measurements from US9669028B2, “Substituted 5-(pyrazin-2-yl)-1H-pyrazolo [3, 4-B] pyridine and pyrazolo [3, 4-B] pyridine derivatives as protein kinase inhibitors” (Arrien Pharmaceuticals LLC, priority 2011, dated 2017).

A value given as a limit tells only on which side of the number the result lay.

Holding throughout (format): biochemical
One experiment addresses LRRK2 G2019S (Homo sapiens (Human), UniProt Q5S007, G2019S). Kind of experiment: LRRK2 G2019S Kinase Assay. The settings on record: 10 μM ATP. As for the experimental part: Procedure: Enzyme was incubated with substrate peptide in reaction buffer in the presence and absence of test compounds or Staurosporine. All additions were done on ice, followed by the addition of ATP mix. Wells were uniformly mixed using an Eppendorff plate shaker and incubated at 30° C. for 20 min, and stopped by the addition of 5 μl of 3% phosphoric acid. Volume was increased to 100 μl by adding 0.8% phosphoric acid which was then transferred to PC filter mats (Millipore), pre-equilibrated with 70% ethanol and water. Plates were washed thrice with 100 μl 0.8% phosphoric acid and dried for an hour at 60° C. 100 μl scintillation fluid was added into each well and reading taken in Perkin Elmer TOPCOUNT beta counter. […] A validation EC50 curve was generated by plotting CPM for each Staurosporine concentration on y-axis against the Log concentration of Staurosporine (nM) on the x-axis followed by a best fit curve through the points.
After 1 hour Kinase Reaction incubation, 5 μL of Detection Mix was added.

A further experiment deals with LRRK2 (Homo sapiens (Human), UniProt Q5S007). Kind of experiment: LRRK2 Kinase Assay. The settings on record: 10 μM ATP. The procedure:
(§1) Briefly, specific kinase/substrate pairs along with required cofactors were prepared in reaction buffer; 20 mM Hepes (pH 7.5), 10 mM MgCl2, 1 mM EGTA, 0.02% Brij35, 0.02 mg/ml BSA, 0.1 mM Na3VO4, 2 mM DTT, 1% DMSO. Compounds were delivered into the reaction, followed ˜20 min later by addition of a mixture of ATP (Sigma) and 33P ATP (PerkinElmer) to a final concentration of 10 μM. […] IC50 values and curve fits were obtained using Prism (GraphPad Software). Kinome tree representations were prepared using Kinome Mapper (http://www.reactionbiology.com/apps/kinome/mapper/Launch Kinome.htm).
For the wild type LRRK the 2×LRRK2/ERM (LRRKtide) mixture was prepared in 50 mM Tris pH 8.5, 0.01% BRIJ-35, 10 mM MgCl2, 1 mM EGTA, 0.02% NaN3. […] After 1 hour Kinase Reaction incubation, 5 μL of Detection Mix was added.

A further experiment deals with DYRK1A (Homo sapiens (Human), UniProt Q13627). As to the kind of experiment: In vitro DYRK1A inhibition assay. The procedure: as §1
The 2×DYRK1A/Ser/Thr 18 mixture was prepared in 50 mM HEPES pH 7.5, 0.01% BRIJ-35, 10 mM MgCl2, 1 mM EGTA.

Chain of LRRK2 (Q5S007 970-2527): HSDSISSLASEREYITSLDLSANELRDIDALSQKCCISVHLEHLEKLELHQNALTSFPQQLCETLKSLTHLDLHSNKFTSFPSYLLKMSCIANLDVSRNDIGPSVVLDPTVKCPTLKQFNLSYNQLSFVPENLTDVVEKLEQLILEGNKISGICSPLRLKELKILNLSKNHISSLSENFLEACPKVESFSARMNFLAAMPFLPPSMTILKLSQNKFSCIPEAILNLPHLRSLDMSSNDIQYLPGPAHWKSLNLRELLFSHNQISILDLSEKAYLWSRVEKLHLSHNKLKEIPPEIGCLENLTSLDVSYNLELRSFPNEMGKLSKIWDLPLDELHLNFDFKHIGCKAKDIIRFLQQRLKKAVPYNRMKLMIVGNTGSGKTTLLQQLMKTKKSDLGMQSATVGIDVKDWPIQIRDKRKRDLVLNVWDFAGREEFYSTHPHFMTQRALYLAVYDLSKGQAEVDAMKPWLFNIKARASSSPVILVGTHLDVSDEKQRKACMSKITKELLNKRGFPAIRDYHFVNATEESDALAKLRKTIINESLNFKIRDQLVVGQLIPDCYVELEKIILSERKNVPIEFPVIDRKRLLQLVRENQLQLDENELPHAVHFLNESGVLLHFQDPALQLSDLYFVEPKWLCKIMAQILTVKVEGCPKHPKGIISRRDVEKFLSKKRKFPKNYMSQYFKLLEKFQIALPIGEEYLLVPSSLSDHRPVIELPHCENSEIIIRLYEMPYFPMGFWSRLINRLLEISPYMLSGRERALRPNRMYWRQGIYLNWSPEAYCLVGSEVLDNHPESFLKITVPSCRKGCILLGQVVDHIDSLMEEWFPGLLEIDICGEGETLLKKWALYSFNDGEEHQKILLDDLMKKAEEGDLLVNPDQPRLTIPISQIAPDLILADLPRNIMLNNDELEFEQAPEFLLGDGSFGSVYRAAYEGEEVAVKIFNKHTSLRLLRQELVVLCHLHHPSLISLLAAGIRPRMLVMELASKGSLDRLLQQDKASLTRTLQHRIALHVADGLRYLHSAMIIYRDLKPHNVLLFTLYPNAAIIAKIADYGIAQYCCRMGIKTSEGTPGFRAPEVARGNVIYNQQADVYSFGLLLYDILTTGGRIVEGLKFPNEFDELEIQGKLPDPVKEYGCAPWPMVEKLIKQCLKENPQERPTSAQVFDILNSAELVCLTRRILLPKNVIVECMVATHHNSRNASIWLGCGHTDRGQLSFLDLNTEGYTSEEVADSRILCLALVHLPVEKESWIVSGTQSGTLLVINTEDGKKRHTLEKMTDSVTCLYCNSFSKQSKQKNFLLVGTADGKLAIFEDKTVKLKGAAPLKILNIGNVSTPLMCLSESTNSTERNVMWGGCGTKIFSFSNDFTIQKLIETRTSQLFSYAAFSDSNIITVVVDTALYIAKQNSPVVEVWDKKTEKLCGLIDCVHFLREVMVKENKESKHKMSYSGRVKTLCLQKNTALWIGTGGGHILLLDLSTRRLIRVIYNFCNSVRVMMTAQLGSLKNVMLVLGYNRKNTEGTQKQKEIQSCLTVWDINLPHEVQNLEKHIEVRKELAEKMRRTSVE
Chain of LRRK2 G2019S (Q5S007 970-2527 G2019S): as the sequence (Q5S007 970-2527) above, with G1050S counted along it

Turning to `Cc1n[nH]c2ncc(-c3cncc(NC(=O)C4CCN(C)CC4)n3)cc12` [Compound 39], the IC50 against LRRK2 G2019S, on LRRK2 and against DYRK1A was > 500 nM in each case.

For `Cc1n[nH]c2ncc(-c3cncc(N4CCCC4=O)n3)cc12` [Compound 48, 1-(6-(3-methyl-1H-pyrazolo[3,4-b]pyridin-5-yl)pyrazin-2-yl)pyrrolidin-2-one], the IC50 (in general, the point on the concentration scale where inhibition reaches its midpoint) is > 500 nM at LRRK2 G2019S, > 500 nM against LRRK2 and > 1000 nM against DYRK1A.

Take `Cc1n[nH]c2ncc(-c3cncc(NC4CCN(C)C4)n3)cc12` (stereo not drawn) [Compound 51, 6-(3-methyl-1H-pyrazolo[3,4-b]pyridin-5-yl)-N-(1-methylpyrrolidin-3-yl)pyrazin-2-amine]: the figures for the half-maximal inhibitory concentration (IC50) at LRRK2 G2019S, at LRRK2 and at DYRK1A were > 500 nM, > 500 nM and > 1000 nM, respectively.

Turning to `Cc1n[nH]c2ncc(-c3cncc(N4CCC(F)(F)C4)n3)cc12` [Compound 56, 5-(6-(3,3-difluoropyrrolidin-1-yl)pyrazin-2-yl)-3-methyl-1H-pyrazolo[3,4-b]pyridine], the results for the IC50 against LRRK2 G2019S, against LRRK2 and against DYRK1A were > 500 nM, > 500 nM and > 1000 nM, respectively.

On to `Cc1n[nH]c2ncc(-c3cncc(N4CCN(CCO)CC4)n3)cc12` [Compound 59, 2-(4-(6-(3-methyl-1H-pyrazolo[3,4-b]pyridin-5-yl)pyrazin-2-yl)piperazin-1-yl)ethanol], for which the results for the IC50 against LRRK2 G2019S, on LRRK2 and at DYRK1A were < 500 nM, < 500 nM and > 500 nM, respectively.

Take `Cc1n[nH]c2ncc(-c3cncc(N4CCN(C)CC4)n3)cc12` [Compound 65, 3-methyl-5-(6-(4-methylpiperazin-1-yl)pyrazin-2-yl)-1H-pyrazolo[3,4-b]pyridine]: the IC50 is < 500 nM against LRRK2 G2019S, < 500 nM against LRRK2 and > 1000 nM against DYRK1A.

Consider `Cc1n[nH]c2ncc(-c3cncc(NCCN(C)C)n3)cc12` [Compound 68, N^1,N^1-dimethyl-N2-(6-(3-methyl-1H-pyrazolo[3,4-b]pyridin-5-yl)pyrazin-2-yl)ethane-1,2-diamine], for which the figures for the IC50 against LRRK2 G2019S, against LRRK2 and against DYRK1A were < 500 nM, < 500 nM and > 1000 nM, respectively.

In the case of `Cc1n[nH]c2ncc(-c3cncc(C(=O)N4CCCCC4)n3)cc12` [Compound 77, (6-(3-methyl-1H-pyrazolo[3,4-b]pyridin-5-yl)pyrazin-2-yl)(piperidin-1-yl)metha-none], the IC50 against LRRK2 G2019S is > 500 nM; at LRRK2, > 500 nM; against DYRK1A it was > 1000 nM.

As for `Cc1n[nH]c2ncc(-c3cncc(NC4CCN(CCO)CC4)n3)cc12` [Compound 81, 2-(4-((6-(3-methyl-1H-pyrazolo[3,4-b]pyridin-5-yl)pyrazin-2-yl)amino)piperidin-1-yl)ethanol], the IC50 against LRRK2 G2019S, against LRRK2 and at DYRK1A was < 500 nM in each case.

For `Cc1n[nH]c2ncc(-c3cncc(N4CCNC(=O)C4)n3)cc12` [Compound 83, 4-(6-(3-methyl-1H-pyrazolo[3,4-b]pyridin-5-yl)pyrazin-2-yl)piperazin-2-one], the IC50 at LRRK2 G2019S, at LRRK2 and on DYRK1A was > 500 nM in each case.

For the molecule `Cc1n[nH]c2ncc(-c3cncc(NC4CCN(C(C)C)CC4)n3)cc12` [Compound 87, N-(1-isopropylpiperidin-4-yl)-6-(3-methyl-1H-pyrazolo[3,4-b]pyridin-5-yl)pyrazin-2-amine], the IC50 against LRRK2 G2019S, on LRRK2 and on DYRK1A was > 500 nM in each case.

In the case of `Cc1n[nH]c2ncc(-c3cncc(N4CCc5ccccc54)n3)cc12` [Compound 90, 5-(6-(indolin-1-yl)pyrazin-2-yl)-3-methyl-1H-pyrazolo[3,4-b]pyridine], the IC50 against LRRK2 G2019S, against LRRK2 and at DYRK1A was < 500 nM each time.

For the molecule `Cc1n[nH]c2ncc(-c3cncc(Nc4cccc(N5CCCC5=O)c4)n3)cc12` [Compound 94, 1-(3-((6-(3-methyl-1H-pyrazolo[3,4-b]pyridin-5-yl)pyrazin-2-yl)amino)phenyl)pyrrolidin-2-one], the IC50 is < 500 nM at LRRK2 G2019S, < 500 nM at LRRK2 and > 500 nM against DYRK1A.
